Results reported in patent publication US20230398118A1, “METHODS OF TREATING CARDIOVASCULAR-RELATED DISEASE” (Keros Therapeutics, Inc., priority 2020, published 2023).

What was measured:
Format in all cases: in vivo, human
[1] = tested on: healthy male volunteers and healthy postmenopausal female volunteers; experiment: Phase 1 safety and tolerability, single and multiple ascending oral doses
Source text: A total of 131 healthy, males aged 18 to 60 years and post-menopausal females aged 45 to 60 years, participated in this study.
(§1) The primary objectives of this study were to a) evaluate safety and tolerability of escalating doses of the compound of Formula I-11 administered as single and multiple oral doses in healthy male volunteers and healthy postmenopausal female volunteers and b) evaluate the PK parameters following escalating doses of the compound of Formula I-11 administered as single and multiple oral doses. The […] secondary objective of this study was to evaluate the pharmacodynamic (PD) parameters following escalating doses of the compound of Formula I-11 administered as single and multiple oral doses. This study was conducted in two parts.
Part 1 included 80 participants (10 cohorts of 8 participants each). Male and female participants who met the eligibility criteria were randomly assigned, in a ratio of 3:1 to receive the compound of Formula I-11 or matching placebo, N=6 and 2 per dose cohort, respectively. Participant enrollment included […] males and 12.5% females (postmenopausal). The IMP formulation used in Cohorts 1 through 6 was an oral capsule (doses of 1, 3, 10, 30, 100, or 300 mg capsule formulation). An oral liquid formulation was evaluated in Cohorts 7 through 10 (doses of 30, 100, 300 or 450 mg liquid formulation).
(§2) Participants in Part 1 received a single oral dose of the compound of Formula I-11 or placebo on Day 1 and serial PK samples were collected. Baseline assessments were performed on day −1 prior to dosing. Samples were collected for determination of pharmacodynamic parameters at pre-dose daily and up to 24 hours post dose (day 2) after a single oral dose of the compound of Formula I-11. Participants remained at the study site for observation for 24 hours post-dose through the PK sample collection on Day 2. Participants returned to the site for the 48, 72, and 120-hour post-dose sample collection on Days 3, 4, and 6. Safety was evaluated by a Safety Review Committee prior to escalation to the next dose level cohort.
Part 2, Cohorts 1 through 4, included 41 participants (4 cohorts of 10 participants each and 1 additional placebo participant in Cohort 1). Male and female participants who met the eligibility criteria were randomly assigned at a ratio of 4:1 to receive either the compound of Formula I-11 oral liquid formulation or matching placebo, N=8 and 2 per dose cohort respectively. Forty (97.6%) males and 1 (2.4%) female (placebo) participant were enrolled.
(§3) Participants in Part 2, Cohorts 1 through 3, received a daily oral dose of the compound of Formula I-11 (50, 100, or 200 mg liquid formulation respectively) or placebo for 7 days. A daily oral dose of the compound of Formula I-11 or placebo in participants in Part 2, Cohort 4 (350 mg liquid formulation) was planned for 14 days but was discontinued early in all subjects, either by the Investigator because of AEs, or by the Sponsor. A decision was made by the Sponsor to discontinue dosing of the entire cohort based on the frequency of AEs and laboratory abnormalities after Day 9. In Cohort 4, participants on the compound of Formula I-11 received daily oral dosing of 350 mg for up to 7 days; one placebo participant received daily oral dosing for 9 days. Samples were collected for determination of pharmacodynamic parameters at pre-dose daily and to 24 hours post dose (day 8) while on drug. Daily trough PK samples were collected for the determination of steady-state from Day 2 to Day 12 or 13. Participants returned to the site on Day 30 for an end-of-study visit. Safety was evaluated by a Safety Review Committee prior to escalation to the next dose level cohort.
Part 2, MAD Cohort 5 participants received either the compound of Formula I-11, 100 mg (n=8) or placebo (n=2) on Days 1, 2, 3, 4, 5, 6, 7. The last dose was administered on the morning of Day 7. […]

[2] = Pharmacokinetics after single and multiple oral doses
Source text: as §1, §2
Participants in Part 2, Cohorts 1 through 3, received a daily oral dose of the compound of Formula I-11 (50, 100, or 200 mg liquid formulation respectively) or placebo for 7 days. A daily oral dose of the compound of Formula I-11 or placebo in participants in Part 2, Cohort 4 (350 mg liquid formulation) was planned for 14 days but was discontinued early in all subjects, either by the Investigator because of AEs, or by the Sponsor. A decision was made by the Sponsor to discontinue dosing of the entire cohort based on the frequency of AEs and laboratory abnormalities after Day 9. […] Safety was evaluated by a Safety Review Committee prior to escalation to the next dose level cohort. […]

[3] = tested on: healthy male volunteers and healthy postmenopausal female volunteers; experiment: Pharmacodynamics: serum cholesterol, LDL and HDL cholesterol by standard clinical laboratory tests
Source text: as §1, §2, §3
Pharmacodynamic endpoints: Protocol-specified endpoints were assessed at baseline and regularly throughout the study period. These assessments included serum cholesterol, LDL, and HDL cholesterol. Measurements of all pharmacodynamic end points were made using standard clinical laboratory tests.

[4] = repeated oral administration, all MAD cohorts (1-5), Day 7

With `COc1cc2c(-c3cnn4cc(N5CCC(N6CCN(C)CC6)CC5)cnc34)ccnc2cc1F` [Formula I-11] the “dose level well tolerated” value ([1]; after 7 daily oral doses (Part 2, MAD)) was “up to 200 mg”, the “subjects with increases in ALT >2x ULN” value ([1]; both, human, in vivo) was 3 subjects and the “AEs reported and higher than placebo” value ([1]; in vivo) was “headache, nausea, vomiting, diarrhea, gastroenteritis, chills, pyrexia, myalgia, decreased appetite, lymphopenia, neutropenia, and liver enzyme increases”. The serious adverse events ([1]; in vivo) was “no serious adverse events”, the “severity of the majority of AEs” value ([1]; in vivo) was “mild or moderate in severity” and the “participants who discontinued the study” value ([1]; male, human, in vivo) was 3 (9.4%) participants. The “dose level well tolerated” value ([1]; single oral dose (Part 1, SAD)) was “up to 450 mg”, the half-life ([2]; both sexes, in vivo, human, oral) was 10 to 15 h and the “Mean AUC, dose dependence” value ([2]; multiple doses from 50-200 mg) was “increased linearly with greater than dose-proportional increases”. The “Mean Cmax, dose dependence” value ([2]; multiple doses from 50-200 mg) was “increased linearly with greater than dose-proportional increases”, the “decrease in LDL compared with HDL cholesterol” value ([3]; all MAD cohorts, Day 7) was “greater decreases in LDL than HDL cholesterol” and the total cholesterol ([3]; repeated oral administration, MAD Cohorts 1-4, across the one-week dosing period) was “decreases in total cholesterol”. For the same compound, the HDL cholesterol [3, 4] was “decreases in HDL cholesterol”, the LDL cholesterol [3, 4] was “decreases in LDL cholesterol” and the total cholesterol ([3]; single oral administration, SAD cohorts, within 24 hours) was “decreases in total cholesterol”.
